Test results published in ChEMBL document CHEMBL5338818, “Discovery of the First Potent, Selective, and In Vivo Efficacious Polo-like Kinase 4 Proteolysis Targeting Chimera Degrader for the Treatment of TRIM37-Amplified Breast Cancer” (J Med Chem, 2023).
Calls of active or inactive are those of the source. The rule behind the calls is not given here.

Tests used:
[1] = system: MCF7; assay: Antiproliferative activity against human MCF7 cells incubated for 5 days by CCK-8 assay; conditions: MCF7, 120 h
[2] = molecular target: T1, Protein cereblon/Serine/threonine-protein kinase PLK4 (Homo sapiens, UniProt O00444+Q96SW2); assay: Protac activity at CRBN/PLK4 in human MCF7 cells at 10 uM incubated for 48 hrs by Western blot analysis; assay type: cell-based
T1 sequence (Q96SW2 whole entry, looked up, one chain of several): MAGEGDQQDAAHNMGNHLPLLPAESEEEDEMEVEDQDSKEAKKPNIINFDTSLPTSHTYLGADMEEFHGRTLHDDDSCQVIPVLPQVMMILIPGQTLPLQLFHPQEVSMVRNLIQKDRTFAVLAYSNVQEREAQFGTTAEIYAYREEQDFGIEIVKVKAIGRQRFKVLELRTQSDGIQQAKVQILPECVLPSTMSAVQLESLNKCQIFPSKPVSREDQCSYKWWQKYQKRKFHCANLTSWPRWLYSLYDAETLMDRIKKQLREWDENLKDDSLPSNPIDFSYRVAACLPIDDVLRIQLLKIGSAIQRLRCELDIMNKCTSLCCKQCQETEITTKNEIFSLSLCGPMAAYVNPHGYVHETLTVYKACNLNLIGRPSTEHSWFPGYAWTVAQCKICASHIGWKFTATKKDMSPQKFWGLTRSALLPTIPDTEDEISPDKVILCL

[3] = molecular target: T1, Protein cereblon/Serine/threonine-protein kinase PLK4; assay: Protac activity at CRBN/PLK4 in human MCF7 cells at 1 uM by Western blot analysis; assay type: cell-based
[4] = molecular target: T1, Protein cereblon/Serine/threonine-protein kinase PLK4; assay: Protac activity at CRBN/PLK4 in human MCF7 cells at 1 uM in presence of MG132 by Western blot analysis; assay type: cell-based
[5] = molecular target: T2, Serine/threonine-protein kinase PLK4 (Homo sapiens) (UniProt O00444); assay: Inhibition of PLK4 in human MCF7 cells assessed as reduction in FBXW5 inactivation by Western blot analysis; assay type: cell-based; conditions: dose 1-1000 nM
T2 sequence (whole entry): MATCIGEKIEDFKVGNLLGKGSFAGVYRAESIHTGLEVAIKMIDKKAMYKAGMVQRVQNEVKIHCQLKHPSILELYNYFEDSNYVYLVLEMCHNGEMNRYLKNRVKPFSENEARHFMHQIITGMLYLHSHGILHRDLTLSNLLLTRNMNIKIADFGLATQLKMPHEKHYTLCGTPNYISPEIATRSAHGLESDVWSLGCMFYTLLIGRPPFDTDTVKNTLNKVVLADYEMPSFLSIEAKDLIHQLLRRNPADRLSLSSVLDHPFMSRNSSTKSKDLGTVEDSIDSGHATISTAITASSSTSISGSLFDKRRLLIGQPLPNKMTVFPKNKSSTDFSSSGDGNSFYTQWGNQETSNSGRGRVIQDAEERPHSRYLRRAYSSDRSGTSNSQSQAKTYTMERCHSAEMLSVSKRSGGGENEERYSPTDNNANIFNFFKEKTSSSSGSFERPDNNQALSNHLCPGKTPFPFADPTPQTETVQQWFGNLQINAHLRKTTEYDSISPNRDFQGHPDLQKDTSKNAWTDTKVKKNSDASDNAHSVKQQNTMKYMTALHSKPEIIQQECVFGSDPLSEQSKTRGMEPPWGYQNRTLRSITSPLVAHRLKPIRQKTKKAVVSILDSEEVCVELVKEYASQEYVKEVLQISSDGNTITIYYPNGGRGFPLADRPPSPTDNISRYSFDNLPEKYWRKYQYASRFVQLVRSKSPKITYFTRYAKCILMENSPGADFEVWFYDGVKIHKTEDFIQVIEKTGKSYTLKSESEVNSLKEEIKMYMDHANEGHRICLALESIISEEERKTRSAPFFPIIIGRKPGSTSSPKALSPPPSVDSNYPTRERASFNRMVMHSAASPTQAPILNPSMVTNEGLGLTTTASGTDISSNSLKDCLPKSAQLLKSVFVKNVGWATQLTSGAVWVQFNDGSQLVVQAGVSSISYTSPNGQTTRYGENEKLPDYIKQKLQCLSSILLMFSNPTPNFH

[6] = system: MCF7; assay: Induction of apoptosis in human MCF7 cells at 0.3 to 3 uM incubated for 36 hrs by Annexin V-FITC//propidium iodide staining based flow cytometry analysis; assay type: functional, cell-based; conditions: dose 0.3-3 µM
[7] = system: MCF7; assay: Induction of cell senescence in human MCF7 cells assessed by increase SA-beta-Gal positive cells at 2 uM measured after 48 hrs; assay type: functional, cell-based
[8] = system: MCF7; assay: Inhibition of human MCF7 cells migration incubated for 48 hrs by inverted microscopic analysis; assay type: functional, cell-based; conditions: dose 0.1-1 µM
[9] = Stability in human plasma assessed as compound remaining at 100 uM after 30 mins by LC-MS/MS analysis (reference value: 100%); assay type: ADME, cell-free; conditions: read-out: Stability
[10] = Metabolic stability in rat liver microsomes assessed as intrinsic clearance at 100 uM incubated for 60 mins in presence of NADPH by LC-MS/MS analysis; assay type: ADME, Microsome; conditions: read-out: CLH
[11] = Metabolic stability in mouse liver microsomes assessed as compound remaining at 100 uM incubated for 60 mins in presence of NADPH by LC-MS/MS analysis; assay type: ADME, Microsome; conditions: read-out: Stability
[12] = molecular target: CYP2C9 (Homo sapiens, UniProt P11712); assay: Inhibition of CYP2C9 in human liver microsomes at 10 uM using sulfaphenazole as substrate preincubated for 10 mins followed by NADPH regenerating system addition and measured after 15 mins by LC-MS/MS analysis relative to control; assay type: ADME, Microsome; conditions: time 25 min
Sequence of CYP2C9 (P11712 whole entry): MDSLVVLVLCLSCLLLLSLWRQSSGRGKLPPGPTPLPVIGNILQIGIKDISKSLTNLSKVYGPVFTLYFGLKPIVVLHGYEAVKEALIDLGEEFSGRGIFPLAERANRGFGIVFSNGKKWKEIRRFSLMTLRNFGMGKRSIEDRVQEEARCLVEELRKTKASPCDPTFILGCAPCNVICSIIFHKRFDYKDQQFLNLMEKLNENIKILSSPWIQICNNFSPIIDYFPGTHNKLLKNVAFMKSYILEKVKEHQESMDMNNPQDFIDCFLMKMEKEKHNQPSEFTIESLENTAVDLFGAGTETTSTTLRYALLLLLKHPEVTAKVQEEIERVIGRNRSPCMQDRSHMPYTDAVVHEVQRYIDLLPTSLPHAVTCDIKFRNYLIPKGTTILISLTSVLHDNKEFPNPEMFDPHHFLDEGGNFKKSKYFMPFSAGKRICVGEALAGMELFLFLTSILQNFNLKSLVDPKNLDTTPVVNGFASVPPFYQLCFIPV

[13] = AUClast in ICR mouse at 20 mg/kg, ip measured upto 24 hrs by LC-M/MS analysis; assay type: ADME, organism-based; set-up: dose 20 mg/kg, time < 24 hrs, route ip; conditions: in vivo
[14] = Observed AUC infinity in ICR mouse at 20 mg/kg, ip measured upto 24 hrs by LC-M/MS analysis; assay type: ADME, organism-based; set-up: dose 20 mg/kg, time < 24 hrs, route ip; conditions: in vivo
[15] = Half life in ICR mouse at 2 mg/kg, iv measured upto 24 hrs by LC-M/MS analysis; assay type: ADME, organism-based; conditions: in vivo
[16] = Tmax in ICR mouse at 20 mg/kg, ip measured upto 24 hrs by LC-M/MS analysis; assay type: ADME, organism-based; conditions: in vivo
[17] = Cmax in ICR mouse at 20 mg/kg, ip measured upto 24 hrs by LC-M/MS analysis; assay type: ADME, organism-based; set-up: dose 20 mg/kg, time < 24 hrs, route ip; conditions: in vivo
[18] = Observed volume of distribution at steady state in ICR mouse at 2 mg/kg, iv measured upto 24 hrs by LC-M/MS analysis; assay type: ADME, organism-based; conditions: in vivo, read-out: Vdss
[19] = Observed mean […] time infinity in ICR mouse at 2 mg/kg, iv measured upto 24 hrs by LC-M/MS analysis; assay type: ADME, organism-based; conditions: in vivo
[20] = Observed mean […] time infinity in ICR mouse at 20 mg/kg, ip measured upto 24 hrs by LC-M/MS analysis; assay type: ADME, organism-based; conditions: in vivo
[21] = Apparent permeability across basolateral to apical side in human Caco-2 cells at 2 uM incubated for 2 hrs by LC-MS/MS analysis; assay type: ADME, cell-based
[22] = system: MCF7; assay: Antitumor activity against human MCF7 cells xenografted in nu/nu mouse assessed as tumor growth inhibition at 20 mg/kg, ip administered once every other day for 21 days; assay type: functional; conditions: MCF7, 504 h, time 21 day, read-out: TGI
[23] = Toxicity in nu/nu mouse xenografted with human MCF7 cells assessed as change in body weight at 20 mg/kg, ip administered once every other day for 21 days; assay type: organism-based; conditions: in vivo, 504 h, time 21 day
[24] = Toxicity in nu/nu mouse xenografted with human MCF7 cells assessed as effect on spleen at 20 mg/kg, ip administered once every other day for 21 days by HE staining based analysis; assay type: organism-based; conditions: in vivo, 504 h, time 21 day
[25] = Toxicity in nu/nu mouse xenografted with human MCF7 cells assessed as effect on kidney at 20 mg/kg, ip administered once every other day for 21 days by HE staining based analysis; assay type: organism-based; conditions: in vivo, 504 h, time 21 day
[26] = system: MCF7; assay: Antitumor activity against human MCF7 cells xenografted in nu/nu mouse assessed as reduction in Ki-67 at 20 mg/kg,ip administered once every other day for 21 days by immunohistochemical analysis; assay type: functional, organism-based; conditions: time 21.0 day
[27] = system: MCF7; assay: Antitumor activity against human MCF7 cells xenografted in nu/nu mouse assessed as induction of apoptosis at 20 mg/kg, ip measured once every other day for 21 days by TUNEL assay; assay type: functional, organism-based; conditions: time 21.0 day

- IC50 [1]: 73 nM
- Activity [2]: 83.5%
- Activity [3]: Active
- Activity [4]: Active
- inhibition [5]: Dose-Dependent Effect
- remaining at 0.5 h, 100 µM [9]: 96.6%
- microsomal CLint at 100 µM [10]: 20.9 µL/min/mg
- remaining at 1 h, 100 µM [11]: 56.4%
- inhibition at 0.25 h, 10 µM [12]: 32.5%
- AUC(0-t) at 24 h [13]: 14000 ng·h/mL
- AUC(0-inf) [14]: 14200 ng·h/mL
- half-life [15]: 320 min
- Tmax [16]: 1.42 h
- Cmax [17]: 4570 ng/mL
- Vd [18]: 16.3 L/kg
- Time [19]: 2.29 h
- Time [20]: 3.93 h
- Papp B→A at 2 h, 2 µM [21]: 0.97 ×10⁻⁶ cm/s
Compound: Cc1cc(Nc2nc(NCc3ccc(F)cc3F)nc3c2cnn3C2CCN(C(=O)C3CCN(c4ccc5c(c4)C(=O)N(C4CCC(=O)NC4=O)C5=O)CC3)CC2)n[nH]1 (configuration not stated)
- Activity [6]: Dose-Dependent Effect
- Activity [7]: Active
- inhibition [8]: Dose-Dependent Effect
- inhibition in vivo at 20 mg/kg [22]: 73.7%
- Activity [23]: Non-Toxic
- Activity [24]: Non-Toxic
- Activity [25]: Non-Toxic
- inhibition [26]: Active
- inhibition [27]: Active
